Results reported in US9781930B2, “3′-substituted-abscisic acid derivatives” (Valent BioSciences Corporation, priority 2014, dated 2017).

How the values were obtained:
Assay type in all cases: in vivo
[1] = test system: Arabidopsis thaliana seed; assay: Seed germination assay for testing Examples 29-46; set-up: key: ++++: The 3′-substituted-derivatives were scored by potency relative to ABA.; (S)-ABA potency = +++.; ++: The 3′-substituted-derivatives were scored by potency relative to ABA.; +: The 3′-substituted-derivatives were scored by potency relative to ABA.; −− = no effect; details: 0.16-40 μM in 6-well plates, 4 days after vernalization, compared with (S)-ABA
Procedure: (§1) Seed Germination Assay for Testing Examples 29-46 To determine the germination inhibition potency of the (±)-ABA derivatives, germination assays were performed with the model plant Arabidopsis thaliana. Arabidopsis seed was sterilized by soaking in 70% ethanol solution for 5 minutes, followed by 5% sodium hypochlorite solution for 10 minutes. The seeds were then washed three times with sterile water. The test compounds were tested in germination assay at five concentrations (0.16, 0.64, 2.5, 10, and 40 μM) with (S)-ABA (0.16, 0.64 and 2.5 μM) as a control in 6-well plates. DMSO stock solutions of (S)-ABA and the derivatives at 1,000 fold of the test concentrations were prepared. The stock solutions (5 μL) of (S)-ABA and the derivatives were added to the wells in the assay plate with 0.8% agar solutions of ½ Murashige and Skoog media. Sixteen sterile seeds were placed on the solid agar medium at an appropriate spacing. The assay plates were sealed with surgical tape and wrapped in aluminum foil, and the seeds were vernalized at 4° C. for 2 days. The assay plates were incubated in a growth chamber at 22.5° C. under daily light cycles of 16 hours (30 μmol/m^2·sec) for 4 days after the vernalization. The germination inhibition potency of the derivatives was scored and compared with that of (S)-ABA. The results are summarized in Table 2 “Table 2: Arabidopsis seed germination inhibition activity of (±)-ABA derivatives.”

[2] = test system: Arabidopsis thaliana seed; assay: Seed germination assay for testing Examples 29-46
Procedure: as §1

[3] = test system: Arabidopsis thaliana seed; assay: Seed germination assay for testing Examples 29-46; set-up: key: + + + +: The other derivatives were scored by potency relative to S-ABA.; (S)-ABA potency = + + +.; + +: The other derivatives were scored by potency relative to S-ABA.; ++: The other derivatives were scored by potency relative to S-ABA.; +: The other derivatives were scored by potency relative to S-ABA.; −− = no effect; details: 0.16-40 μM in 6-well plates, 4 days after vernalization, compared with (S)-ABA
Procedure: as §1

[4] = test system: Arabidopsis thaliana seed; assay: Seed germination inhibition assay for testing Examples 1-28 and 47-50; set-up: key to Arabidopsis seed germination inhibition potency: + + + +: The other derivatives were scored by potency relative to S-ABA.; (S)-ABA potency = + + +.; + +: The other derivatives were scored by potency relative to S-ABA.; ++: The other derivatives were scored by potency relative to S-ABA.; +: The other derivatives were scored by potency relative to S-ABA.; −− = no effect; details: 0.01-10.0 ppm in 96-well plates, scored on day 7, relative to (S)-ABA
Procedure: Seed Germination Inhibition Assay for Testing Examples 1-28 and 47-50 To determine the germination inhibition potency of the (S)-ABA derivatives, germination assays were performed with the model plant Arabidopsis thaliana. Arabidopsis seed was sterilized by shaking for five minutes in 200-proof ethanol, and followed by shaking for five minutes in a 10% bleach solution. The seeds were then washed five times in sterile, distilled, de-ionized water and suspended in 0.1% phytoagar. The tubes containing the seeds were wrapped in aluminum foil and stratified at 4° C. for two days. All compounds were tested at eight concentrations of 0 (DMSO control), 0.01, 0.03, 0.1, 0.3, 1.0, 3.0, and 10.0 ppm in 96-well plates. Each plate contained eight replicates of each concentration of the test compound and eight replicates of (S)-ABA at 0.1 ppm as the positive control. As an additional set of controls, each run of the assay also contained one plate dosed with (S)-ABA covering a range of concentrations up to 10 ppm. For each compound, 10× stock solutions corresponding to each of the tested concentrations were prepared in distilled and de-ionized water containing 5% DMSO. The stock test solution (10 μL) was added to each well according to the scheme described above, and 90 μL of ½× Murashige and Skoog media containing 1.2% Bactoagar was then added to each well (final DMSO concentration was 0.5%). When the media solidified, ten to fifteen sterile stratified Arabidopsis seeds were distributed into each well using a repeat pipettor. The plates were sealed with surgical tape and placed in a growth chamber running diurnal cycles of 12 hours of light at 24° C. and 12 hours of darkness at 19° C. The plates were scanned on days 3 through 7, and scored on day 7. The 3′-substituted-(S)-ABA derivatives were scored on ability to inhibit germination relative to the potency of (S)-ABA. The results are summarized below in “Table 1: Arabidopsis seed germination inhibition activity of (S)-ABA derivatives.”

## CC1=C(C2CC2)C(=O)CC(C)(C)C1(O)/C=C/C(C)=C\C(=O)O (racemic) [Example 29, (2Z,4E)-5-(3-cyclopropyl-1-hydroxy-2,6,6-trimethyl-4-oxocyclohex-2-en-1-yl)-3-methylpenta-2,4-dienoic acid]
[1]
  Arabidopsis seed germination inhibition potency: +++
[2]
  germination inhibition activity compared to (S)-ABA (in words): the same level of potency as (S)-ABA

## CCCC1=C(C)C(O)(/C=C/C(C)=C\C(=O)O)C(C)(C)CC1=O (racemic) [Example 30, (2Z,4E)-5-(1-hydroxy-2,6,6-trimethyl-4-oxo-3-propylcyclohex-2-en-1-yl)-3-methylpenta-2,4-dienoic acid]
[1]
  Arabidopsis seed germination inhibition potency: +++
[2]
  germination inhibition activity compared to (S)-ABA (in words): the same level of potency as (S)-ABA

## CC1=C(C(C)C)C(=O)CC(C)(C)C1(O)/C=C/C(C)=C\C(=O)O (racemic) [Example 31, (2Z,4E)-5-(1-hydroxy-3-isopropyl-2,6,6-trimethyl-4-oxocyclohex-2-en-1-yl)-3-methylpenta-2,4-dienoic acid]
[1]
  Arabidopsis seed germination inhibition potency: +

## CCC1=C(C)C(O)(/C=C/C(C)=C\C(=O)O)C(C)(C)CC1=O (racemic) [Example 32, (2Z,4E)-5-(3-ethyl-1-hydroxy-2,6,6-trimethyl-4-oxocyclohex-2-en-1-yl)-3-methylpenta-2,4-dienoic acid]
[1]
  Arabidopsis seed germination inhibition potency: +++
[2]
  germination inhibition activity compared to (S)-ABA (in words): the same level of potency as (S)-ABA

## CCCCC1=C(C)C(O)(/C=C/C(C)=C\C(=O)O)C(C)(C)CC1=O (racemic) [Example 33, (2Z,4E)-5-(3-butyl-1-hydroxy-2,6,6-trimethyl-4-oxocyclohex-2-en-1-yl)-3-methylpenta-2,4-dienoic acid]
[1]
  Arabidopsis seed germination inhibition potency: +

## CC1=C(CC(C)C)C(=O)CC(C)(C)C1(O)/C=C/C(C)=C\C(=O)O (racemic) [Example 34, (2Z,4E)-5-(1-hydroxy-3-isobutyl-2,6,6-trimethyl-4-oxocyclohex-2-en-1-yl)-3-methylpenta-2,4-dienoic acid]
[3]
  Arabidopsis seed germination inhibition potency: −−

## CC1=C(C(C)(C)C)C(=O)CC(C)(C)C1(O)/C=C/C(C)=C\C(=O)O (racemic) [Example 35, (2Z,4E)-5-(3-(tert-butyl)-1-hydroxy-2,6,6-trimethyl-4-oxocyclohex-2-en-1-yl)-3-methylpenta-2,4-dienoic acid]
[3]
  Arabidopsis seed germination inhibition potency: −−

## CC1=C(C2(C)CC2)C(=O)CC(C)(C)C1(O)/C=C/C(C)=C\C(=O)O (racemic) [Example 36, (2Z,4E)-5-(1-hydroxy-2,6,6-trimethyl-3-(1-methylcyclopropyl)-4-oxocyclohex-2-en-1-yl)-3-methylpenta-2,4-dienoic acid]
[3]
  Arabidopsis seed germination inhibition potency: −−

## CCCCCCC1=C(C)C(O)(/C=C/C(C)=C\C(=O)O)C(C)(C)CC1=O (racemic) [Example 37, (2Z,4E)-5-(3-hexyl-1-hydroxy-2,6,6-trimethyl-4-oxocyclohex-2-en-1-yl)-3-methylpenta-2,4-dienoic acid]
[3]
  Arabidopsis seed germination inhibition potency: −−

## CC1=C(C(F)F)C(=O)CC(C)(C)C1(O)/C=C/C(C)=C\C(=O)O (racemic) [Example 38, (2Z,4E)-5-(3-(difluoromethyl)-1-hydroxy-2,6,6-trimethyl-4-oxocyclohex-2-en-1-yl)-3-methylpenta-2,4-dienoic acid]
[1]
  Arabidopsis seed germination inhibition potency: +++
[2]
  germination inhibition activity compared to (S)-ABA (in words): the same level of potency as (S)-ABA

## CC1=C(C(C)(F)F)C(=O)CC(C)(C)C1(O)/C=C/C(C)=C\C(=O)O (racemic) [Example 39, (2Z,4E)-5-(3-(1,1-difluoroethyl)-1-hydroxy-2,6,6-trimethyl-4-oxocyclohex-2-en-1-yl)-3-methylpenta-2,4-dienoic acid]
[1]
  Arabidopsis seed germination inhibition potency: ++++
[2]
  germination inhibition activity compared to (S)-ABA (in words): more active than (S)-ABA

## CC1=C(C(C)F)C(=O)CC(C)(C)C1(O)/C=C/C(C)=C\C(=O)O (racemic) [Example 40, (2Z,4E)-5-(3-(1-fluoroethyl)-1-hydroxy-2,6,6-trimethyl-4-oxocyclohex-2-en-1-yl)-3-methylpenta-2,4-dienoic acid]
[1]
  Arabidopsis seed germination inhibition potency: ++++
[2]
  germination inhibition activity compared to (S)-ABA (in words): more active than (S)-ABA

## CC1=C(C2CCC2)C(=O)CC(C)(C)C1(O)/C=C/C(C)=C\C(=O)O (racemic) [Example 41, (2Z,4E)-5-(3-cyclobutyl-1-hydroxy-2,6,6-trimethyl-4-oxocyclohex-2-en-1-yl)-3-methylpenta-2,4-dienoic acid]
[1]
  Arabidopsis seed germination inhibition potency: ++

## CC1=C(C2CCCC2)C(=O)CC(C)(C)C1(O)/C=C/C(C)=C\C(=O)O (racemic) [Example 42, (2Z,4E)-5-(3-cyclopentyl-1-hydroxy-2,6,6-trimethyl-4-oxocyclohex-2-en-1-yl)-3-methylpenta-2,4-dienoic acid]
[3]
  Arabidopsis seed germination inhibition potency: −−

## CC1=C(C2CC2F)C(=O)CC(C)(C)C1(O)/C=C/C(C)=C\C(=O)O (racemic) [Example 43, (2Z,4E)-5-(3-(2-fluorocyclopropyl)-1-hydroxy-2,6,6-trimethyl-4-oxocyclohex-2-en-1-yl)-3-methylpenta-2,4-dienoic acid]
[1]
  Arabidopsis seed germination inhibition potency: +++
[2]
  germination inhibition activity compared to (S)-ABA (in words): the same level of potency as (S)-ABA

## CC1=C(CC(F)(F)F)C(=O)CC(C)(C)C1(O)/C=C/C(C)=C\C(=O)O (racemic) [Example 44, (2Z,4E)-5-(1-hydroxy-2,6,6-trimethyl-4-oxo-3-(2,2,2-trifluoroethyl)cyclohex-2-en-1-yl)-3-methylpenta-2,4-dienoic acid]
[1]
  Arabidopsis seed germination inhibition potency: ++

## CC1=C(C(F)(F)F)C(=O)CC(C)(C)C1(O)/C=C/C(C)=C\C(=O)O (racemic) [Example 45, (2Z,4E)-5-(1-hydroxy-2,6,6-trimethyl-4-oxo-3-(trifluoromethyl)cyclohex-2-en-1-yl)-3-methylpenta-2,4-dienoic acid]
[1]
  Arabidopsis seed germination inhibition potency: ++++
[2]
  germination inhibition activity compared to (S)-ABA (in words): more active than (S)-ABA

## CC1=CC(=O)CC(C)(C)[C@@]1(O)/C=C/C(C)=C/C(=O)O [(S)-ABA, (S)-abscisic acid, reference compound]
[4]
  Arabidopsis seed germination inhibition potency: + + +
[1]
  Arabidopsis seed germination inhibition potency: +++
